Test results taken from PubChem BioAssay AID493193 (Broad Institute, 2011).
Activity calls are given as the source filed them. No rule for the calls is given here.

Test system: U2OS HRE-luciferase reporter, luminescence, HIF pathway activation
Test: PubChem AID 493193
Conditions: not given
For `c1ccc(-c2nnc(-c3ccccn3)nc2NCCc2ccccn2)cc1`, the AC40 was 15.4 µM.
In the case of `c1ccc(-c2nnc(-c3ccccn3)nc2N2CCC(C3CCCCC3)C2)cc1` (stereo not given), the AC40 is reported as 3.71 µM.
In the case of `COc1ccc(CNc2nc(-c3ccccn3)nnc2-c2ccccc2)cc1`, the AC40 is reported as 5.05 µM.
With `C[C@H](Nc1nc(-c2ccccn2)nnc1-c1ccccc1)C1CCCCC1` the AC40 was 4.15 µM.
`c1ccc(-c2nnc(-c3ccccn3)nc2NCc2ccccn2)cc1` showed an AC40 of 26 µM.
`Oc1ccc(CN2CCC3CCCCC3C2)c2cccnc12` (stereo not given) gave an AC40 of 32.7 µM.
With `c1ccc(-c2nnc(-c3ccccn3)nc2NCC2CCOCC2)cc1` the AC40 was 26.1 µM.
In the case of `Clc1cccc(CNc2nc(-c3ccccn3)nnc2-c2ccccc2)c1`, the AC40 is reported as 2.5 µM.
`c1ccc(-c2cccc(CNc3nc(-c4ccccn4)nnc3-c3ccccc3)c2)cc1` gave an AC40 of 2.15 µM.
Work on `CC(C)(C)c1ccc(CNc2nc(-c3ccccn3)nnc2-c2ccccc2)cc1` yielded an AC40 of 2.09 µM.
For `c1ccc(-c2nnc(-c3ccccn3)nc2NCc2cccnc2)cc1`, the AC40 was 24.3 µM.
`CC(C)(C)CCNc1nc(-c2ccccn2)nnc1-c1ccccc1` gave an AC40 of 2.74 µM.
With `C[C@@H](Nc1nc(-c2ccccn2)nnc1-c1ccccc1)C1CCCCC1` the AC40 was 6.18 µM.
In the case of `Cc1ccc(CNc2nc(-c3ccccn3)nnc2-c2ccccc2)cc1C`, the AC40 is reported as 3.09 µM.
Work on `Oc1ccc(CN2CCc3ccccc3C2)c2cccnc12` yielded an AC40 of 19.5 µM.
With `COc1cccc(CNc2nc(-c3ccccn3)nnc2-c2ccccc2)c1` the AC40 was 4.85 µM.
For `c1ccc(CCNc2nc(-c3ccccn3)nnc2-c2ccccc2)cc1`, the AC40 was 2.98 µM.
With `c1ccc(-c2nnc(-c3ccccn3)nc2N2CCC(c3ccccc3)C2)cc1` (stereo not given) the AC40 was 3.55 µM.
Compound `CC(Nc1nc(-c2ccccn2)nnc1-c1ccccc1)c1ccccc1` (stereo not given) has an AC40 of 5.33 µM.
For `C[C@@H](Nc1nc(-c2ccccn2)nnc1-c1ccccc1)c1ccccc1`, the AC40 was 6.45 µM.
Work on `c1ccc(-c2ccc(CNc3nc(-c4ccccn4)nnc3-c3ccccc3)cc2)cc1` yielded an AC40 of 1.92 µM.

Test system: not listed separately
Test: PubChem AID 493193
Conditions: U2OS HRE-luciferase reporter, luminescence, HIF pathway activation; at 38 µM (top of the series)
With `CC(C)(C)OC(=O)N1CCN(Cc2ccc(O)c3ncccc23)CC1` the activation was 4.98% (inactive).
With `N#CC1(c2ccccc2)CCN(Cc2ccc(O)c3ncccc23)CC1` the activation was 9.09% (inactive).
With `OCC1CCN(Cc2ccc(O)c3ncccc23)CC1` the activation was 8.79% (inactive).
For `Oc1ccc(CN2CCC(Cc3ccccc3)CC2)c2cccnc12`, the activation was 14.5% (inactive).
With `Oc1ccc(CN2CCc3ccccc3C2)c2cccnc12` the activation was 0.929% (inactive).
For `Oc1ccc(CNC2Cc3ccccc3C2)c2cccnc12`, the activation was 21.4% (inactive).
With `Oc1ccc(CNC2CCc3ccccc32)c2cccnc12` (stereo not given) the activation was 7.38% (inactive).
For `COc1ccccc1N1CCN(Cc2ccc(O)c3ncccc23)CC1`, the activation was 10.3% (inactive).
With `CC1CN(Cc2ccc(O)c3ncccc23)CC(C)O1` (stereo not given) the activation was 1.16% (inactive).
